Measurements as given in paper PMC6934184, “Selective DNA-PKcs inhibition extends the therapeutic index of localized radiotherapy and chemotherapy” (The Journal of Clinical Investigation, 2019).

Molecular target: T1, PRKACG (PRKAC gamma) (Homo sapiens, UniProt P22612)
T1 construct: purchased Thermo Fisher Scientific (Life Technologies) SelectScreen
Assay: SelectScreen LanthaScreen
Assay type: binding
Settings: read-out: % displacement
Outline: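 SelectScreen broad panel; activity (Z'LYTE, Adapta) plus binding formats. ATP: Km app for CSF1R Z'LYTE; 10 for CAMK1 Adapta. Readout = % per kinase.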

T1 sequence (P22612 whole entry): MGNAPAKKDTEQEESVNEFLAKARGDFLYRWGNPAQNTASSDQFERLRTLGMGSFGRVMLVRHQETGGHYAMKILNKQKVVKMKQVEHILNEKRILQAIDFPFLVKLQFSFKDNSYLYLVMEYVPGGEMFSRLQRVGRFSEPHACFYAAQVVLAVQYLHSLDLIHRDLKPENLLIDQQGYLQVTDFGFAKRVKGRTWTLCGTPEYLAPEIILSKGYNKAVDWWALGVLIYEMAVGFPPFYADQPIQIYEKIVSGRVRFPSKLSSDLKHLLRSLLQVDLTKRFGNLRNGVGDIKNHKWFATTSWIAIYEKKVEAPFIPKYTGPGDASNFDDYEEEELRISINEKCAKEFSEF

CN(C(=O)CN1CCOCC1)c1ccc2sc3c(-c4cccc5c(=O)cc(N6CC7CCC(C6)O7)oc45)cccc3c2c1 [NU5455]
inhibition at 1 µM: -0.2%
